According to publication PMC8555866 (Nature chemical biology, 2021):
Counter-ions that a name gives are not always drawn.

Tests used:
Keap1 (tag-free) [1] = target: T1, Keap1 (tag-free) (Homo sapiens, UniProt Q14145); test: Assay-1: inhibitor dose response, full length Keap1; format: binding; settings: 5 nM Keap1, 3.5 nM each KL9 tracer, 4 h
[2] = target: HDAC1-HT in HEK293T cells (Homo sapiens, UniProt Q13547); format: cell-based; settings: Cora-2-Halo labeled HEK293T cells expressing HDAC1-HT, 4 h at 37°C
Keap1 (tag-free) [3] = target: T1, Keap1 (tag-free); test: Assay-2: inhibitor dose response, full length Keap1; format: binding; settings: for activity in Assay-2 (in words): 5 nM Cora-1-KL9, 150 nM CDDO-FITC, 5 nM Keap1
[4] = target: wildtype Keap1 (tag-free) (Homo sapiens, UniProt Q14145); test: Keap1 tracer saturation binding with wildtype Keap1; settings: fixed Cora-1-KL9 (5 nM) and wildtype Keap1, one-site binding model
wildtype Keap1 (tag-free), sequence (Q14145 whole entry): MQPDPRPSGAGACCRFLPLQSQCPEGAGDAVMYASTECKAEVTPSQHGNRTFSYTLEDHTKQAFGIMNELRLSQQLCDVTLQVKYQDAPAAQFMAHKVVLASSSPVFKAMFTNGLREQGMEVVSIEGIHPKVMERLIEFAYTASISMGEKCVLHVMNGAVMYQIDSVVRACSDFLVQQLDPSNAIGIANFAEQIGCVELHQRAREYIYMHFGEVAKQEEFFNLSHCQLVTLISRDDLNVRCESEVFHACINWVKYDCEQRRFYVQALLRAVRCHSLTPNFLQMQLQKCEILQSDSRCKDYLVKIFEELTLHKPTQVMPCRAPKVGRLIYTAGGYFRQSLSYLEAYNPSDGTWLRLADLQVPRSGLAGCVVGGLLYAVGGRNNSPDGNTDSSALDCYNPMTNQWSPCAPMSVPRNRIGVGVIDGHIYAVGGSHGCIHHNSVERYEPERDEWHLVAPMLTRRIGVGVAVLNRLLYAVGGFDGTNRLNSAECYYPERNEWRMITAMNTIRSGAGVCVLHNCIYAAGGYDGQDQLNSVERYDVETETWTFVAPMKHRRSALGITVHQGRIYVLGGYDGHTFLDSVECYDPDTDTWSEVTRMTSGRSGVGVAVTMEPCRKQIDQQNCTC

T1 sequence (Q14145 whole entry): as above
HDAC1-HT in HEK293T cells, sequence (Q13547 whole entry): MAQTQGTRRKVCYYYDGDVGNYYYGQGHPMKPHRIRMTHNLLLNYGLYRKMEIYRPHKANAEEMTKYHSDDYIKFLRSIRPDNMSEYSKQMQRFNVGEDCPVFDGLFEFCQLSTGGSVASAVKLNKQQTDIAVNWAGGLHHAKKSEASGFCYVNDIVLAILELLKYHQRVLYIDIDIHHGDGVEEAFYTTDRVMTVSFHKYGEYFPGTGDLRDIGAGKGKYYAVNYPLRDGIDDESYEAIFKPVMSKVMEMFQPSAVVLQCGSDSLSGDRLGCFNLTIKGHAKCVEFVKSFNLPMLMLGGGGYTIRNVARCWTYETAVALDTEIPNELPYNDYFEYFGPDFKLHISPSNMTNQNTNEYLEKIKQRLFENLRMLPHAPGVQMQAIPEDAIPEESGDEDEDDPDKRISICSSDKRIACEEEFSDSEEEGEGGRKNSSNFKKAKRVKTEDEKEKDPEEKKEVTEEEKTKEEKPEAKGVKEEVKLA

Structure (SMILES)	affinity in Assay-1 (no appreciable affinity below) (Keap1 (tag-free) [1]) [µM]	activity in Assay-1 (in words) (Keap1 (tag-free) [1])	other results
COC(=O)/C=C/C(=O)OC [dimethyl fumarate]	> 100		
CC1=C(O)C(=O)C=C2C1=CC=C1[C@@]2(C)CC[C@@]2(C)[C@@H]3C[C@](C)(C(=O)O)CC[C@]3(C)CC[C@]12C [celastrol]		micromolar activity	
O=C(CCCCCCC(=O)Nc1ccc(CNC(=O)c2ccc(C(=O)O)c(C3=c4cc5c6c(c4Oc4c3cc3c7c4CCCN7CCCC3)CCC[N+]=6CCCC5)c2)cc1)NO [SAHA-NCT]			TR-FRET signal in live cells / cell permeability (in words) [2]: specific and ligand concentration-dependent TR-FRET signal
Cc1sc2c(c1C)C(c1ccc(Cl)cc1)=NC(CC(=O)NCCCOCCOCCOCCCNC(=O)[C@]13CCC(C)(C)C[C@H]1[C@H]1C(=O)C=C4[C@@]5(C)C=C(C#N)C(=O)C(C)(C)[C@@H]5CC[C@@]4(C)[C@]1(C)CC3)c1nnc(C)n1-2 (some centres unmarked) [CDDO-JQ1]	> 100		fold less potent than CDDO (Keap1 (tag-free) [3]; Assay-2): > 500 fold
COC1=CC(=O)C(O)=C/C1=C\C=C\c1ccccc1 [OBT, obtusaquinone]		micromolar activity	
CC1(C)CC[C@]2(C(=O)NCCCOCCOCCOCCCNC(=S)Nc3ccc(-c4c5ccc(=O)cc-5oc5cc(O)ccc45)c(C(=O)O)c3)CC[C@]3(C)[C@H](C(=O)C=C4[C@@]5(C)C=C(C#N)C(=O)C(C)(C)[C@@H]5CC[C@]43C)[C@@H]2C1 [CDDO-FITC]			Kd [4]: 164 ± 37.1 nM
COC(=O)[C@]12CCC(C)(C)C[C@H]1[C@H]1C(=O)C=C3[C@@]4(C)C=C(C#N)C(=O)C(C)(C)[C@@H]4CC[C@@]3(C)[C@]1(C)CC2 [CDDO-Me, bardoxolone methyl]	> 100		activity in Assay-2 (in words) (Keap1 (tag-free) [3]): most potent competitors of CDDO-FITC
CC1(C)CC[C@]2(C(=O)O)CC[C@]3(C)[C@H](C(=O)C=C4[C@@]5(C)C=C(C#N)C(=O)C(C)(C)[C@@H]5CC[C@]43C)[C@@H]2C1 [CDDO]		micromolar activity	activity in Assay-2 (in words) (Keap1 (tag-free) [3]): most potent competitors of CDDO-FITC
